Laboratory results reported in patent US20250376461A1, “INDAZOLE DERIVATIVES FOR TREATING TRPM3-MEDIATED DISORDERS” (Katholieke Universiteit Leuven, priority 2022, published 2025).

The compounds below were run against T1, mouse TRPM3α2 (mTRPM3) ion channel (Mus musculus, UniProt J9SQF3) (assay: TRPM3 ion channel driven Ca2+ uptake, Fluo-4 AM assay, mTRPM3alpha2 overexpressing flip-in HEK293 cells stimulated with pregnenolone sulfate (50 μM)). Conditions: mTRPM3 overexpressing HEK293 cells stimulated with pregnenolone sulfate (50 μM), activity ranges A, B, C.
T1 construct: expressed in transfected cells; host or cells: flip-in HEK293
T1 sequence (J9SQF3 1-1709 isoform J9SQF3-12): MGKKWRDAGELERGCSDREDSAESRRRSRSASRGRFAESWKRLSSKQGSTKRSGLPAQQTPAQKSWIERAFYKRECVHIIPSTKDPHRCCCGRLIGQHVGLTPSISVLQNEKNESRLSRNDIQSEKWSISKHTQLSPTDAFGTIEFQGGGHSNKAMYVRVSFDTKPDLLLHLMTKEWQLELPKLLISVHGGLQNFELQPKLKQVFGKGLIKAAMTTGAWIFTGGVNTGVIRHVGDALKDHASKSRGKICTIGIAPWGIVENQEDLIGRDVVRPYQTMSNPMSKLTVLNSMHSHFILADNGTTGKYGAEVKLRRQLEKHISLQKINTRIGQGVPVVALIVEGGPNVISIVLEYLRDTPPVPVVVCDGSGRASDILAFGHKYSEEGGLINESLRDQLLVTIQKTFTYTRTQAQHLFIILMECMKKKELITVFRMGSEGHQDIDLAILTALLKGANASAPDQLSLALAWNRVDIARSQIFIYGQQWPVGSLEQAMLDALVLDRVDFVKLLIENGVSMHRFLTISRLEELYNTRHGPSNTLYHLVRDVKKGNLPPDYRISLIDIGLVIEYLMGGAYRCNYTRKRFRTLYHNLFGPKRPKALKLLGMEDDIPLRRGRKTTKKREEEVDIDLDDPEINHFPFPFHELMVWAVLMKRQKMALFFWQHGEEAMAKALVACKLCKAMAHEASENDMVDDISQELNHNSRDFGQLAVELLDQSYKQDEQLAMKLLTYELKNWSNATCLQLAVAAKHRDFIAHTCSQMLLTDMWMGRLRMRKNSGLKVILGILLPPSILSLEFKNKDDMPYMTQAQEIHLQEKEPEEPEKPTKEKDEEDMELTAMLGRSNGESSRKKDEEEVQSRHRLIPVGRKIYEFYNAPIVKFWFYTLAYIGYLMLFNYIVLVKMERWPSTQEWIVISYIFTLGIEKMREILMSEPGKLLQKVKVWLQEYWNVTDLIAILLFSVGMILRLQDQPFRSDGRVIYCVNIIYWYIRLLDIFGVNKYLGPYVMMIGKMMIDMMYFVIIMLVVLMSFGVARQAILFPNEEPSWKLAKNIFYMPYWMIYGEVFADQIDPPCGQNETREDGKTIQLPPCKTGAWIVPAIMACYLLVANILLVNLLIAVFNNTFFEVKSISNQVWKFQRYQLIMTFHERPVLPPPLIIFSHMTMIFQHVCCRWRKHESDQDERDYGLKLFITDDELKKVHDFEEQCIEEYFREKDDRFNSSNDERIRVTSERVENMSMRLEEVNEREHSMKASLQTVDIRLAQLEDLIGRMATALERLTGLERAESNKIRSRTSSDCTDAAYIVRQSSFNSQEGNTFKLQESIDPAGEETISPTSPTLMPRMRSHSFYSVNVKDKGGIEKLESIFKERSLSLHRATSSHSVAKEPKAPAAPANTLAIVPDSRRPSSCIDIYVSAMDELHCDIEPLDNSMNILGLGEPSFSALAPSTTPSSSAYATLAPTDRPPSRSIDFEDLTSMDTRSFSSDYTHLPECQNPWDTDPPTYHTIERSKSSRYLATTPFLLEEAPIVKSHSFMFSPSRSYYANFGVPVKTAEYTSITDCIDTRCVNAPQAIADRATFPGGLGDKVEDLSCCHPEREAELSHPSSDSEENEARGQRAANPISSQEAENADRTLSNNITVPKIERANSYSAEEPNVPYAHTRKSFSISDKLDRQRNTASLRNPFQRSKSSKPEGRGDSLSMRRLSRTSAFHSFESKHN
Assay type: cell-based
Method in brief: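 Flip-in HEK293 cells overexpressing mTRPM3α2, loaded with Fluo-4 AM, added at ±2000 cells/well to plates holding compound plus 50 μM pregnenolone sulfate in Ca2+-containing Krebs buffer. Fluorescence (ex 485/em 535 nm) read immediately. Percent inhibition normalised between vehicle and positive-control inhibitor; IC50 derived.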

First: Cn1nc2ccc(OCc3ccccc3F)cc2c1C(=O)NC1(CO)CCOCC1 [Cpd 096, 5-[(2-fluorophenyl)methoxy]-N-[4-(hydroxymethyl)oxan-4-yl]-2-methyl-2H-indazole-3-carboxamide]
Second: Cn1nc2ccc(OCc3ccccc3F)cc2c1C(=O)NC1(C(N)=O)CCOCC1 [Cpd 097, N-(4-carbamoyloxan-4-yl)-5-[(2-fluorophenyl)methoxy]-2-methyl-2H-indazole-3-carboxamide]
The IC50 of the first is higher: 1 to 20 µM for the first, < 1 µM for the second. The second is the more potent here.

First: C[C@@H](NC(=O)c1c2cc(OCc3ccccc3F)ccc2nn1C)C(N)=O [Cpd 098, (2R)-2-({5-[(2-fluorophenyl)methoxy]-2-methyl-2H-indazol-3-yl}formamido)propanamide]
Second: C[C@H](NC(=O)c1c2cc(OCc3ccccc3F)ccc2nn1C)C(N)=O [Cpd 099, (2S)-2-({5-[(2-fluorophenyl)methoxy]-2-methyl-2H-indazol-3-yl}formamido)propanamide]
The IC50 of the first is higher: 1 to 20 µM for the first, < 1 µM for the second.

First: Cn1nc2ccc(OCc3ccccn3)cc2c1C(=O)NC1(CO)COC1 [Cpd 100, N-[3-(hydroxymethyl)oxetan-3-yl]-2-methyl-5-[(pyridin-2-yl)methoxy]-2H-indazole-3-carboxamide]
Second: Cn1nc2ccc(OCc3ccccn3)cc2c1C(=O)NC1(CO)CC1 [Cpd 104, N-[1-(hydroxymethyl)cyclopropyl]-2-methyl-5-[(pyridin-2-yl)methoxy]-2H-indazole-3-carboxamide]
The IC50 of the first is lower: 1 to 20 µM for the first, > 20 µM for the second.

`Cc1ncsc1COc1ccc2nn(C)c(C(=O)N[C@@H](C)C(N)=O)c2c1` [Cpd 101, (2S)-2-({2-methyl-5-[(4-methyl-1,3-thiazol-5-yl)methoxy]-2H-indazol-3-yl}formamido)propanamide] and `Cc1ncsc1COc1ccc2nn(C)c(C(=O)N[C@H](C)C(N)=O)c2c1` [Cpd 118, (2R)-2-({2-methyl-5-[(4-methyl-1,3-thiazol-5-yl)methoxy]-2H-indazol-3-yl}formamido)propanamide] fall in the same range of IC50: 1 to 20 µM for the first, 1 to 20 µM for the second.

Compared with `Cn1nc2ccc(OCc3ccccn3)cc2c1C(=O)NC1CCOCC1` [Cpd 102, 2-methyl-N-(oxan-4-yl)-5-[(pyridin-2-yl)methoxy]-2H-indazole-3-carboxamide], `Cn1nc2ccc(OCc3ccccn3)cc2c1C(=O)NC1(CO)CCOCC1` [Cpd 106, N-[4-(hydroxymethyl)oxan-4-yl]-2-methyl-5-[(pyridin-2-yl)methoxy]-2H-indazole-3-carboxamide] is lower in IC50: > 20 µM for the first, 1 to 20 µM for the second. The second is the more potent here.

`Cc1ncc(COc2ccc3nn(C)c(C(=O)NC(C)(C)C(N)=O)c3c2)s1` [Cpd 103, 2-methyl-2-({2-methyl-5-[(2-methyl-1,3-thiazol-5-yl)methoxy]-2H-indazol-3-yl}formamido)propanamide] and `Cc1ncsc1COc1ccc2nn(C)c(C(=O)NC(C)(C)C(N)=O)c2c1` [Cpd 110, 2-methyl-2-({2-methyl-5-[(4-methyl-1,3-thiazol-5-yl)methoxy]-2H-indazol-3-yl}formamido)propanamide] fall in the same range of IC50: 1 to 20 µM for the first, 1 to 20 µM for the second.

Compared with `Cc1ncc(COc2ccc3nn(C)c(C(=O)NC4(CO)COC4)c3c2)s1` [Cpd 105, N-[3-(hydroxymethyl)oxetan-3-yl]-2-methyl-5-[(2-methyl-1,3-thiazol-5-yl)methoxy]-2H-indazole-3-carboxamide], `Cc1ncc(COc2ccc3nn(C)c(C(=O)NC4(CO)CC4)c3c2)s1` [Cpd 114, N-[1-(hydroxymethyl)cyclopropyl]-2-methyl-5-[(2-methyl-1,3-thiazol-5-yl)methoxy]-2H-indazole-3-carboxamide] is higher in IC50: 1 to 20 µM for the first, > 20 µM for the second.

`Cc1ncsc1COc1ccc2nn(C)c(C(=O)NC3(C(N)=O)CCOCC3)c2c1` [Cpd 107, N-(4-carbamoyloxan-4-yl)-2-methyl-5-[(4-methyl-1,3-thiazol-5-yl)methoxy]-2H-indazole-3-carboxamide] and `Cc1ncsc1COc1ccc2nn(C)c(C(=O)NC3CCOCC3)c2c1` [Cpd 115, 2-methyl-5-[(4-methyl-1,3-thiazol-5-yl)methoxy]-N-(oxan-4-yl)-2H-indazole-3-carboxamide] fall in the same range of IC50: 1 to 20 µM for the first, 1 to 20 µM for the second.

First: Cc1ncc(COc2ccc3nn(C)c(C(=O)NC4(CO)CCC4)c3c2)s1 [Cpd 108, N-[1-(hydroxymethyl)cyclobutyl]-2-methyl-5-[(2-methyl-1,3-thiazol-5-yl)methoxy]-2H-indazole-3-carboxamide]
Second: Cc1ncc(COc2ccc3nn(C)c(C(=O)NC4(CO)CCOCC4)c3c2)s1 [Cpd 124, N-[4-(hydroxymethyl)oxan-4-yl]-2-methyl-5-[(2-methyl-1,3-thiazol-5-yl)methoxy]-2H-indazole-3-carboxamide]
The IC50 of the first is lower: 1 to 20 µM for the first, > 20 µM for the second. The first is the more potent here.

`Cc1ncsc1COc1ccc2nn(C)c(C(=O)NC3(CO)COC3)c2c1` [Cpd 109, N-[3-(hydroxymethyl)oxetan-3-yl]-2-methyl-5-[(4-methyl-1,3-thiazol-5-yl)methoxy]-2H-indazole-3-carboxamide] and `Cc1ncsc1COc1ccc2nn(C)c(C(=O)N[C@H](CO)C(N)=O)c2c1` [Cpd 113, (2R)-3-hydroxy-2-({2-methyl-5-[(4-methyl-1,3-thiazol-5-yl)methoxy]-2H-indazol-3-yl}formamido)propanamide] fall in the same range of IC50: 1 to 20 µM for the first, 1 to 20 µM for the second.

`Cc1ncc(COc2ccc3nn(C)c(C(=O)NC4CCN(C)CC4)c3c2)s1` [Cpd 111, 2-methyl-5-[(2-methyl-1,3-thiazol-5-yl)methoxy]-N-(1-methylpiperidin-4-yl)-2H-indazole-3-carboxamide] and `Cc1ncsc1COc1ccc2nn(C)c(C(=O)NC3CCN(C)CC3)c2c1` [Cpd 112, 2-methyl-5-[(4-methyl-1,3-thiazol-5-yl)methoxy]-N-(1-methylpiperidin-4-yl)-2H-indazole-3-carboxamide] cannot be ordered by IC50: > 20 µM for the first, > 20 µM for the second.

Compared with `Cc1ncsc1COc1ccc2nn(C)c(C(=O)N[C@@H](CO)C(N)=O)c2c1` [Cpd 116, (2S)-3-hydroxy-2-({2-methyl-5-[(4-methyl-1,3-thiazol-5-yl)methoxy]-2H-indazol-3-yl}formamido)propanamide], `Cc1ncc(COc2ccc3nn(C)c(C(=O)N[C@@H](CO)C(N)=O)c3c2)s1` [Cpd 126, (2S)-3-hydroxy-2-({2-methyl-5-[(2-methyl-1,3-thiazol-5-yl)methoxy]-2H-indazol-3-yl}formamido)propanamide] is higher in IC50: < 1 µM for the first, 1 to 20 µM for the second.

Compared with `Cc1ncc(COc2ccc3nn(C)c(C(=O)N[C@H](C)C(N)=O)c3c2)s1` [Cpd 117, (2R)-2-({2-methyl-5-[(2-methyl-1,3-thiazol-5-yl)methoxy]-2H-indazol-3-yl}formamido)propanamide], `Cc1ncc(COc2ccc3nn(C)c(C(=O)N[C@@H](C)C(N)=O)c3c2)s1` [Cpd 119, (2S)-2-({2-methyl-5-[(2-methyl-1,3-thiazol-5-yl)methoxy]-2H-indazol-3-yl}formamido)propanamide] is lower in IC50: > 20 µM for the first, 1 to 20 µM for the second.

`Cc1ncc(COc2ccc3nn(C)c(C(=O)NC4CCOCC4)c3c2)s1` [Cpd 120, 2-methyl-5-[(2-methyl-1,3-thiazol-5-yl)methoxy]-N-(oxan-4-yl)-2H-indazole-3-carboxamide] and `Cn1nc2ccc(OCC3CC3)cc2c1C(=O)NCC1CC1` [Cpd 133, 5-(cyclopropylmethoxy)-N-(cyclopropylmethyl)-2-methyl-2H-indazole-3-carboxamide] cannot be ordered by IC50: > 20 µM for the first, > 20 µM for the second.

First: C[C@@H](NC(=O)c1c2cc(OCC3CC3)ccc2nn1C)C(N)=O [Cpd 121, (2R)-2-{[5-(cyclopropylmethoxy)-2-methyl-2H-indazol-3-yl]formamido}propanamide]
Second: Cn1nc2ccc(OCC3CC3)cc2c1C(=O)N[C@H](CO)C(N)=O [Cpd 136, (2R)-2-{[5-(cyclopropylmethoxy)-2-methyl-2H-indazol-3-yl]formamido}-3-hydroxypropanamide]
The IC50 of the first is lower: < 1 µM for the first, 1 to 20 µM for the second. The first is the more potent here.

First: Cn1nc2ccc(OCc3cccnc3C(F)(F)F)cc2c1C(=O)O [Cpd 122, 2-methyl-5-((2-(trifluoromethyl)pyridin-3-yl)methoxy)-2H-indazole-3-carboxylic acid]
Second: Cn1nccc1COc1ccc2nn(C)c(C(=O)O)c2c1 [Cpd 123, 2-methyl-5-[(1-methyl-1H-pyrazol-5-yl)methoxy]-2H-indazole-3-carboxylic acid]
The IC50 of the first is lower: 1 to 20 µM for the first, > 20 µM for the second. The first is the more potent here.

Compared with `Cn1nc2ccc(OCc3ccccn3)cc2c1C(=O)NC(C)(CO)CO` [Cpd 127, N-(1,3-dihydroxy-2-methylpropan-2-yl)-2-methyl-5-[(pyridin-2-yl)methoxy]-2H-indazole-3-carboxamide], `Cc1ncc(COc2ccc3nn(C)c(C(=O)NC(C)(CO)CO)c3c2)o1` [Cpd 131, N-(1,3-dihydroxy-2-methylpropan-2-yl)-2-methyl-5-[(2-methyl-1,3-oxazol-5-yl)methoxy]-2H-indazole-3-carboxamide] is higher in IC50: < 1 µM for the first, 1 to 20 µM for the second. The first is the more potent here.

`Cn1nc2ccc(OCC3CCC3)cc2c1C(=O)NC(C)(CO)CO` [Cpd 129, 5-(cyclobutylmethoxy)-N-(1,3-dihydroxy-2-methylpropan-2-yl)-2-methyl-2H-indazole-3-carboxamide] and `Cn1nc2ccc(OCC3CC3)cc2c1C(=O)NC(C)(CO)CO` [Cpd 135, 5-(cyclopropylmethoxy)-N-(1,3-dihydroxy-2-methylpropan-2-yl)-2-methyl-2H-indazole-3-carboxamide] fall in the same range of IC50: 1 to 20 µM for the first, 1 to 20 µM for the second.

`Cn1nc2ccc(OCC3CCC3)cc2c1C(=O)N[C@@H](CO)C(N)=O` [Cpd 130, (2S)-2-{[5-(cyclobutylmethoxy)-2-methyl-2H-indazol-3-yl]formamido}-3-hydroxypropanamide] and `Cn1nc2ccc(OCC3CC3)cc2c1C(=O)N[C@@H](CO)C(N)=O` [Cpd 137, (2S)-2-{[5-(cyclopropylmethoxy)-2-methyl-2H-indazol-3-yl]formamido}-3-hydroxypropanamide] cannot be ordered by IC50: < 1 µM for the first, < 1 µM for the second.

`Cn1nc2ccc(OCC3CC3)cc2c1C(=O)NC(C)(C)C(N)=O` [Cpd 134, 2-{[5-(cyclopropylmethoxy)-2-methyl-2H-indazol-3-yl]formamido}-2-methylpropanamide] gave an IC50 of 1 to 20 µM.
